The results in this text go back to ChEMBL document CHEMBL1201862, “PubChem BioAssay data set” (2004).

The subject of one assay is INS1. Briefly: beta cell apoptosis inhibitors, cytokine rescue, dose response, luminescence, retest (AID 449756).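 Also: cell death triggered by IL-1 beta plus TNF-alpha plus IFN-gamma mixture; protective hits raise ATP signal compared with cytokine alone wells.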 Format: functional, cell-based. The settings on record: Rattus norvegicus.
The target in assay [1] is T1, RNA-editing ligase 1, mitochondrial (Trypanosoma brucei brucei, UniProt P86926).
T1 sequence (P86926 whole entry): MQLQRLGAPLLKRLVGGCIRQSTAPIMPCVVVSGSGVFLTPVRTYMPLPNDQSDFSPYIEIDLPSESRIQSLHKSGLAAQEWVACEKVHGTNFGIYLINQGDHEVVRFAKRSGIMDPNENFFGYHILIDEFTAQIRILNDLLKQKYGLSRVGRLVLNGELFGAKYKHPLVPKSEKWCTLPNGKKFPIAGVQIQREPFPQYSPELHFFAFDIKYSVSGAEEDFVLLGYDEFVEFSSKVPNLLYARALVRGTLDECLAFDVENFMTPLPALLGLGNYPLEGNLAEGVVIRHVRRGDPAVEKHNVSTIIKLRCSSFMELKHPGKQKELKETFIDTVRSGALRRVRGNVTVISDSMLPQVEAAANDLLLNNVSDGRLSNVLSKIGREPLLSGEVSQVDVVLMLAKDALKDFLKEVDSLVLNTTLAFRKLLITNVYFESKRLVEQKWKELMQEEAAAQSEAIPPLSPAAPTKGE
As to the kind of experiment: TbREL1 ligase inhibitors, dose response, biochemical, fluorescence, Trypanosoma brucei (AID 1117295). The class given is functional.

Calls of active or inactive are those of the source.

As to `Cc1nc2c(=O)n(C)c(=O)nc-2n(C)n1`, the AC50 with INS1 is 695 nM (active). Besides, the IC50 in assay [1] is 411 nM (active).

As a reminder, the AC50 is the midpoint of the concentration-response curve, whichever way the signal moves. What is called IC50 is the midpoint of a concentration-inhibition curve.
